Laboratory results taken from patent publication US20060003948A1, “Compositions that include a triterpene and a carrier” (priority 2004, published 2006).

Key:
Microsporum canis = assay: Agar Dilution Method 1, Microsporum canis; format: cell-based; parameters: key: +++ = Maximum Fungal Growth; ++ = Moderate Fungal Growth; + = Minimum Fungal Growth; +/− = Very little Fungal Growth; − = No Fungal Growth
Experimental: (§1) Sabourand Dextrose Agar was prepared according the manufacturers instructions and 5 ml was dispensed in 100 X 25 mm tubes and autoclaved for 121° C. for 15 minutes. To each tube containing 5 ml of liquid agar at 45° C., different concentrations of test antifungal compound in DMSO was added, subsequently each was solidified in […], and inoculated with fungal cultures. After incubation for 10-12 days at 25° C. to 28° C., the growth of the fungus was recorded every second day. The Minimum Inhibitory Concentration (MIC) was determined by the tube containing the lowest concentration of test compound which inhibited fungal growth. See, Table 1.

M. canis = assay: Agar Dilution Method 2, M. canis; format: cell-based; details: 12th day of inoculation
Experimental: (§2) Sabourand Dextrose Agar was prepared according the manufacturers instructions and 5 ml was dispensed in 100×25 mm tubes and autoclaved for 121° C. for 15 minutes. To each tube containing 5 ml of liquid agar at 45° C., 4 mg/ml of test antifungal compound was added, subsequently each was solidified in […], and inoculated with fungal cultures. After incubation for 10-12 days at 25° C. to 28° C., the growth of the fungus was recorded every second day.

T. tonsurans = assay: Agar Dilution Method 2, T. tonsurans; format: cell-based; details: 12th day of inoculation
Experimental: as §2

Epidermophyton = assay: Agar Dilution Method 1, Epidermophyton; format: cell-based; parameters: key: +++ = Maximum Fungal Growth; ++ = Moderate Fungal Growth; + = Minimum Fungal Growth; +/− = Very little Fungal Growth; − = No Fungal Growth
Experimental: as §1

M. audouinii = assay: Agar Dilution Method 2, M. audouinii; format: cell-based; details: 12th day of inoculation
Experimental: as §2

Pityrosporum ovale [1] = assay: Agar Dilution Method 1, Pityrosporum ovale; format: cell-based; parameters: key: +++ = Maximum Fungal Growth; ++ = Moderate Fungal Growth; + = Minimum Fungal Growth; +/− = Very little Fungal Growth; − = No Fungal Growth
Experimental: as §1

Pityrosporum ovale [2] = assay: Anti-Fungal Activity Against Pityrosporum ovale; format: cell-based; details: 4 mg/ml of test compound; 37° C. for 18 to 24 hours
Experimental: Betulin and its derivatives have low solubility in water, accordingly the stock solution of the test compounds were prepared in DMSO. The stock solutions for griseofulvin and nystatin were prepared in DMSO at a concentration of 10,000 μg/ml. The yeast Pityrosporum ovale (ATCC Rockville, Md.) was grown in Pityrosporum medium (ATCC Rockville, Md.) at 37° C. for 2-3 days. 5 ml of the medium was dispensed in 100×25 mm tubes and autoclaved at 121° C. for 15 minutes. To each tube at 45° C., 4 mg/ml of test compound was added and solidified in […], subsequently, each was inoculated with P. ovale and incubated at 37° C. for 18 to 24 hours.

[3] = cited from earlier work

Row | Molecule | Fungal Growth Microsporum canis (Microsporum canis; 12.5 μg/ml in DMSO) | Fungal Growth Microsporum canis (Microsporum canis; 25 μg/ml in DMSO) | Fungal Growth Microsporum canis (Microsporum canis; 50 μg/ml in DMSO) | Fungal Growth Microsporum canis (Microsporum canis; 100 μg/ml in DMSO) | Results using the Agar Dilution Method 2 in concentration, M. canis (M. canis) | Results using the Agar Dilution Method 2 in concentration, T. tonsurans (T. tonsurans) | Fungal Growth Epidermophyton (Epidermophyton; 12.5 μg/ml in DMSO) | Fungal Growth Epidermophyton (Epidermophyton; 25 μg/ml in DMSO) | Fungal Growth Epidermophyton (Epidermophyton; 50 μg/ml in DMSO) | Fungal Growth Epidermophyton (Epidermophyton; 100 μg/ml in DMSO) | Results using the Agar Dilution Method 2 in concentration, M. audouinii (M. audouinii) | Fungal Growth Pityrosporum ovale (Pityrosporum ovale [1]; 12.5 μg/ml in DMSO) | Fungal Growth Pityrosporum ovale (Pityrosporum ovale [1]; 25 μg/ml in DMSO) | Fungal Growth Pityrosporum ovale (Pityrosporum ovale [1]; 50 μg/ml in DMSO) | Fungal Growth Pityrosporum ovale (Pityrosporum ovale [1]; 100 μg/ml in DMSO) | growth of P. ovale (Pityrosporum ovale [2]) | other results
1 | CC1(C)CCC23CCC4(C)C(CCC5C6(C)CCC(OC(=O)CCCC(=O)O)C(C)(C)C6CCC54C)C2C1OC3 (stereo not shown) [Allobetulin 3-glutarate] | +/− | +/− | − | − | 25 µg/mL | 25 µg/mL | ++ | + | + | − | 9 µg/mL | +++ | +++ | ++ | − |  | 
2 | CC1(C)CC[C@]23CC[C@]4(C)[C@H](CC[C@@H]5[C@@]6(C)CC[C@H](O)C(C)(C)[C@@H]6CC[C@]54C)[C@H]2[C@H]1OC3 [Allobetulin] |  |  |  |  |  |  |  |  |  |  |  |  |  |  |  | inhibited the growth | Fungal Growth Microsporum canis (Microsporum canis; 9 μg/ml in DMSO): +++; Fungal Growth Microsporum canis (Microsporum canis; 19 μg/ml in DMSO): ++; Fungal Growth Microsporum canis (Microsporum canis; 38 μg/ml in DMSO): ++; Fungal Growth Microsporum canis (Microsporum canis; 75 μg/ml in DMSO): −; Fungal Growth Epidermophyton (Epidermophyton; 9 μg/ml in DMSO): ++; Fungal Growth Epidermophyton (Epidermophyton; 19 μg/ml in DMSO): +; Fungal Growth Epidermophyton (Epidermophyton; 38 μg/ml in DMSO): +; Fungal Growth Epidermophyton (Epidermophyton; 75 μg/ml in DMSO): −; Fungal Growth Pityrosporum ovale (Pityrosporum ovale [1]; 9 μg/ml in DMSO): +++; Fungal Growth Pityrosporum ovale (Pityrosporum ovale [1]; 19 μg/ml in DMSO): +++; Fungal Growth Pityrosporum ovale (Pityrosporum ovale [1]; 38 μg/ml in DMSO): ++; Fungal Growth Pityrosporum ovale (Pityrosporum ovale [1]; 75 μg/ml in DMSO): −
3 | C=C(C)C1CCC2(COC(=O)c3ccccc3C(=O)O)CCC3(C)C(CCC4C5(C)CCC(O)C(C)(C)C5CCC43C)C12 (stereo not shown) [Betulin 28-phthalate] | ++ | + | − | − | 50 µg/mL |  | +++ | ++ | + | − | 25 µg/mL | +++ | +++ | ++ | − |  | 
4 | C=C(C)[C@@H]1CC[C@]2(CO)CC[C@]3(C)[C@H](CC[C@@H]4[C@@]5(C)CC[C@H](O)C(C)(C)[C@@H]5CC[C@]43C)[C@@H]12 [Betulin] | ++ | + | +/− | − | 50 µg/mL |  | + | + | − | − | 25 µg/mL | +++ | +++ | ++ | +/− |  | solubility in water [3]: about 0.15 mg/l
5 | COC1=CC(=O)C[C@@H](C)[C@]12Oc1c(Cl)c(OC)cc(OC)c1C2=O [Griseofulvin, reference compound] |  |  |  |  | 250 µg/mL | 250 µg/mL |  |  |  |  | <125 µg/mL |  |  |  |  |  | Fungal Growth Microsporum canis (Microsporum canis; 125 μg/ml in DMSO): +/−; Fungal Growth Microsporum canis (Microsporum canis; 250 μg/ml in DMSO): +/−; Fungal Growth Microsporum canis (Microsporum canis; 500 μg/ml in DMSO): −; Fungal Growth Microsporum canis (Microsporum canis; 1000 μg/ml in DMSO): −; Fungal Growth Epidermophyton (Epidermophyton; 125 μg/ml in DMSO): ++; Fungal Growth Epidermophyton (Epidermophyton; 250 μg/ml in DMSO): +; Fungal Growth Epidermophyton (Epidermophyton; 500 μg/ml in DMSO): −; Fungal Growth Epidermophyton (Epidermophyton; 1000 μg/ml in DMSO): −; Fungal Growth Pityrosporum ovale (Pityrosporum ovale [1]; 125 μg/ml in DMSO): +++; Fungal Growth Pityrosporum ovale (Pityrosporum ovale [1]; 250 μg/ml in DMSO): +++; Fungal Growth Pityrosporum ovale (Pityrosporum ovale [1]; 500 μg/ml in DMSO): ++; Fungal Growth Pityrosporum ovale (Pityrosporum ovale [1]; 1000 μg/ml in DMSO): −
6 | C[C@@H]1[C@H](O)[C@@H](C)/C=C/C=C/CC/C=C/C=C/C=C/C=C/C(O[C@H]2O[C@H](C)[C@@H](O)[C@H](N)[C@@H]2O)CC2O[C@](O)(CC(O)C(O)CCC(O)CC(O)CC(O)CC(=O)O[C@H]1C)CC(O)C2C(=O)O (stereo partly shown) [Nystatin, reference compound] |  |  |  |  | 250 µg/mL | 250 µg/mL |  |  |  |  | <125 µg/mL |  |  |  |  | inhibited | Fungal Growth Microsporum canis (Microsporum canis; 125 μg/ml in DMSO): +; Fungal Growth Microsporum canis (Microsporum canis; 250 μg/ml in DMSO): +/−; Fungal Growth Microsporum canis (Microsporum canis; 500 μg/ml in DMSO): −; Fungal Growth Microsporum canis (Microsporum canis; 1000 μg/ml in DMSO): −; Fungal Growth Epidermophyton (Epidermophyton; 125 μg/ml in DMSO): +/−; Fungal Growth Epidermophyton (Epidermophyton; 250 μg/ml in DMSO): −; Fungal Growth Epidermophyton (Epidermophyton; 500 μg/ml in DMSO): −; Fungal Growth Epidermophyton (Epidermophyton; 1000 μg/ml in DMSO): −; Fungal Growth Pityrosporum ovale (Pityrosporum ovale [1]; 125 μg/ml in DMSO): +; Fungal Growth Pityrosporum ovale (Pityrosporum ovale [1]; 250 μg/ml in DMSO): +/−; Fungal Growth Pityrosporum ovale (Pityrosporum ovale [1]; 500 μg/ml in DMSO): −; Fungal Growth Pityrosporum ovale (Pityrosporum ovale [1]; 1000 μg/ml in DMSO): −
7 | C=C(C)[C@@H]1CC[C@]2(COC(=O)CCCC(=O)O)CC[C@]3(C)[C@H](CC[C@@H]4[C@@]5(C)CC[C@H](OC(=O)CCCC(=O)O)C(C)(C)[C@@H]5CC[C@]43C)[C@@H]12 [betulin 3,28-diglutarate] |  |  |  |  |  |  |  |  |  |  |  |  |  |  |  | inhibited the growth | 
8 | C=C(C)C1CCC2(COC(=O)CCCC(=O)O)CCC3(C)C(CCC4C5(C)CCC(O)C(C)(C)C5CCC43C)C12 (stereo not shown) [betulin 28-glutarate] |  |  |  |  |  |  |  |  |  |  |  |  |  |  |  | inhibited the growth | 
9 | allobetulin L-valine ester |  |  |  |  |  |  |  |  |  |  |  |  |  |  |  | inhibited the growth | 
